Reference: PMC10895652, “Preclinical Evaluation of Novel Positron Emission Tomography (PET) Probes for Imaging Leucine-Rich Repeat Kinase 2 (LRRK2)” (Journal of Medicinal Chemistry, 2024)

Experiments:
LRRK2 [1] = target: T1, LRRK2 (Rattus norvegicus, UniProt F1LNJ1); experiment: PET imaging in rats with arterial blood sampling (2TCM, VT); type: in vivo; details: compound 3 (1 mg/kg) i.v. prior to tracer injection
T1 construct: from tissue; host or cells: rat brain (Sprague-Dawley rats)
Description: (§1) The promising pharmacological, pharmacokinetic, and in vitro autoradiographic data encouraged us to carry out preliminary dynamic PET imaging studies of [^11C]3 and [^18F]4. […] Given the superiority of fluorine-18 such as clean positron emission, low positron range, and relatively long half-life compared with carbon-11, [^18F]4 was subjected to further investigation (Figure 6). A blocking scan was carried out with intravenous administration of compound 3 (1 mg/kg) prior to tracer injection. For both baseline and blocking studies, blood samples were extracted from the artery. Both whole-blood and plasma radioactivity concentrations were evaluated, and radiometabolites were measured in plasma samples by radio high-performance liquid chromatography (HPLC) to generate metabolite-corrected input function (Figure S2). Compartmental analyses with one- and two-tissue compartment models (1TCM and 2TCM) were carried out on regional time–activity curves. […] In the baseline study, VT of various brain regions ranged from 2.2 to 2.9 mL/cm^3, confirming the high binding of the radiotracer.
The general procedure for PET studies was described previously[35],[41] with minor modification in this work. […] The radioactivity was decay-corrected and expressed as the standard uptake value: SUV = (radioactivity per mL tissue/injected radioactivity) × body weight.

[2] = Ex vivo whole-body biodistribution in mice; design: species or system CD-1 mice; details: for Ex vivo biodistribution: mean ± SD, n = 4
Description: The general procedure for ex vivo biodistribution studies was described previously[35],[41] with minor modification in this work. Briefly, a solution of [^18F]4 (50 μCi/100 μL) was injected into CD-1 mice via tail vein. These mice (each time point n = 4) were sacrificed at 5, 15, 30, and 60 min post tracer injection. Major organs, including whole brain, heart, liver, lung, spleen, kidneys, small intestine (including contents), muscle, and blood samples, were quickly harvested and weighted. The radioactivity present in these tissues was measured using a Cobra Model 5002/5003 γ counter, and all radioactivity measurements were automatically decay-corrected based on the half-life of fluorine-18. The results are expressed as the percentage of injected dose per gram of wet tissue (%ID/g).

LRRK2-G2019S = experiment: PET imaging in LRRK2-G2019S mutant versus wild-type mice; type: in vivo, mouse; details: brain, G2019S mice versus WT mice, p ≤ 0.001
Description: The general procedure for PET studies was described previously[35],[41] with minor modification in this work. Briefly, PET scans were carried out by a Genisys 4 PET scanner (Sofie Biosciences, Culver, CA). Mice were kept under anesthesia using 1–2% (v/v) isoflurane during the scan. The radiotracer (ca. 45 μCi/100 μL) was injected into the tail vein via a preinstalled catheter. A dynamic scan in 3D list mode was acquired for 60 min. The PET dynamic images were reconstructed using G4 software (Analysis Tools and System Setup/Diagnostics Tool, Sofie Biosciences). The radioactivity was decay-corrected and expressed as the standardized uptake value: SUV = (radioactivity per mL tissue/injected radioactivity) × body weight.

[3] = Radiometabolite analysis in rat plasma (radio-HPLC); type: in vivo; details: rats
Description: as §1

LRRK2 [4] = target: T1, LRRK2; experiment: In vitro autoradiography in rat brain sections; type: binding
Description: The general procedure for autoradiography studies was described previously with minor revision in this work.[36],[40] Brain sections from rats were preincubated with Tris-HCl buffer (50 mM), MgCl2 (1.2 mM) and CaCl2 (2 mM) solution for 20 min at ambient temperature, followed by incubation with [^11C]3 and [^18F]4 (0.48 nM). […] After incubation, brain sections were rinsed with ice-cold buffer 3 times for 2 min and dipped in cold distilled water for 10 s. The brain sections were dried with cold air and then placed on imaging plates (BAS-MS2025, GE Healthcare, NJ) for optimized contact periods. Autoradiograms were obtained and regions of interest (ROIs) were carefully drawn with the reference of naked-eye observation. Radioactivity was measured using an Amersham Typhoon 5 analyzer system and expressed as photostimulated luminescence values per unit area (PSL/mm^2) or normalized to % of radioactivity vs control.

T1 sequence (F1LNJ1 1-2526): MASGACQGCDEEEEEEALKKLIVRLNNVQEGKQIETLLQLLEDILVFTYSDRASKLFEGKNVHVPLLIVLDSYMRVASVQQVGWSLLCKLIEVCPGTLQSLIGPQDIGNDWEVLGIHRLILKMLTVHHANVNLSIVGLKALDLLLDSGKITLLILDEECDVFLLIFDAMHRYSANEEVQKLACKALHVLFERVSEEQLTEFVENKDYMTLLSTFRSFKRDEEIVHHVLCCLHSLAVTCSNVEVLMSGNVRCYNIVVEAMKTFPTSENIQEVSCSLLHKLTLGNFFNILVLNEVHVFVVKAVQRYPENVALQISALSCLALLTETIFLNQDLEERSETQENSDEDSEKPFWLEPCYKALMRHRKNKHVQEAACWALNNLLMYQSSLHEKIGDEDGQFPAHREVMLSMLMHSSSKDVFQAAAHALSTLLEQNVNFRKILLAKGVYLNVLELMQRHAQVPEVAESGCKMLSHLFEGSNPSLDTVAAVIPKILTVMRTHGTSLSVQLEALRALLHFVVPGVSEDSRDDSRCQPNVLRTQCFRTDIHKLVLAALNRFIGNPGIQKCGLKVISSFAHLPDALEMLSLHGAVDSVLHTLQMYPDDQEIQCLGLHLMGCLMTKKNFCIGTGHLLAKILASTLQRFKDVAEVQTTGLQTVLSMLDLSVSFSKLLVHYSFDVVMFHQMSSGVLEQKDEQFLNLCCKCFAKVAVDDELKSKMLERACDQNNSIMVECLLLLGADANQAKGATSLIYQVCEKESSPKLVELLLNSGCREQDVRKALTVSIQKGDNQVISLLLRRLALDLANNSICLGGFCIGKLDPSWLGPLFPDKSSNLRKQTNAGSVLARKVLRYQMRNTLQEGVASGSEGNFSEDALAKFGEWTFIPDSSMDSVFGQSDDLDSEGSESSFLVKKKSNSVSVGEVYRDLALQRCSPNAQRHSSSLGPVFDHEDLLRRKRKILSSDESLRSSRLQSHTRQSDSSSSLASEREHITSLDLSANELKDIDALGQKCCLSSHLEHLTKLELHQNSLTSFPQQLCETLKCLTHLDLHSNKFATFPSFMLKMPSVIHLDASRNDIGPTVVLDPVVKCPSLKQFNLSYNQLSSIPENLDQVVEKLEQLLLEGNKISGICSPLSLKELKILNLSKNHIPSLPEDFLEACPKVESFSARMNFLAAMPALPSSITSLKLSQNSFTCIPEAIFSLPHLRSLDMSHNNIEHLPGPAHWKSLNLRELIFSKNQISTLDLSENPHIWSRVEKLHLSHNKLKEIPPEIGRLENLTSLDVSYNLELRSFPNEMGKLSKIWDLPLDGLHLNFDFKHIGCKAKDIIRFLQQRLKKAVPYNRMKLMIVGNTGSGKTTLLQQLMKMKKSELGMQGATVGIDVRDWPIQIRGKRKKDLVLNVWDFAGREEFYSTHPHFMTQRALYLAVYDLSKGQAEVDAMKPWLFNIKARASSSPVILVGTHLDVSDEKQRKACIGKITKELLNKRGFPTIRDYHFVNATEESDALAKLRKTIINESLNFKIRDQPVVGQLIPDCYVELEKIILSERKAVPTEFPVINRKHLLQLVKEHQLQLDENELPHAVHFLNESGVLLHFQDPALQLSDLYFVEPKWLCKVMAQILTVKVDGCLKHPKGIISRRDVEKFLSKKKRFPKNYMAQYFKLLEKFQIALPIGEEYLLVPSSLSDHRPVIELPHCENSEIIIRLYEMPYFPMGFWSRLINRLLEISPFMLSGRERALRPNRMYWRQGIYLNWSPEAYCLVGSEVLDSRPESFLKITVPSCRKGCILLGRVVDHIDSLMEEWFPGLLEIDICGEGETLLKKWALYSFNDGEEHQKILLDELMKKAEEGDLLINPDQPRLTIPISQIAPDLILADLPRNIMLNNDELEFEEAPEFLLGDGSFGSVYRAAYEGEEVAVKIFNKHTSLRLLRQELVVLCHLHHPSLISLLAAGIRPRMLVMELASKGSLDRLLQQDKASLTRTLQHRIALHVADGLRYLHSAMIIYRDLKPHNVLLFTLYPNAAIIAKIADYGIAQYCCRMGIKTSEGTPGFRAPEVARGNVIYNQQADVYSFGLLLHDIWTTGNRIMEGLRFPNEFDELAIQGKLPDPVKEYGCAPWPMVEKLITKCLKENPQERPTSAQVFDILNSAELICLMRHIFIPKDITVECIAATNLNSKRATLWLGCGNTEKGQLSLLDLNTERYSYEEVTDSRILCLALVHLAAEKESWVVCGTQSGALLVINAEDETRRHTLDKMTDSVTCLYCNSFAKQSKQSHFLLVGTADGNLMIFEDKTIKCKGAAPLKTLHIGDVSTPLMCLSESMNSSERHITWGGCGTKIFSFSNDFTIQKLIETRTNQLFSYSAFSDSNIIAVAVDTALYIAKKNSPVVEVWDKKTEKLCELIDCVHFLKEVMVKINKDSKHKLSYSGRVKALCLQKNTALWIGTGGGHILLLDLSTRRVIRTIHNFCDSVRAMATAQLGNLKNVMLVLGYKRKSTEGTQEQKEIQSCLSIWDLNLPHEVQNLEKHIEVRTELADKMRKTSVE

- uptake in various brain regions after pretreatment of compound 3 (LRRK2 [1]): significant decrease of uptake
- de-radiofluorination in vivo ([2]; biodistribution study, up to 60 min): no remarkable de-radiofluorination
- Ex vivo biodistribution ([2]; blood, 5 min): 1.98 ± 0.08 %ID/g
- Ex vivo biodistribution ([2]; blood, 15 min): 1.12 ± 0.16 %ID/g
- Ex vivo biodistribution ([2]; blood, 30 min): 0.60 ± 0.08 %ID/g
- Ex vivo biodistribution ([2]; blood, 60 min): 0.37 ± 0.09 %ID/g
- Ex vivo biodistribution ([2]; bone, 5 min): 2.89 ± 2.05 %ID/g
- Ex vivo biodistribution ([2]; bone, 15 min): 1.06 ± 0.23 %ID/g
- Ex vivo biodistribution ([2]; bone, 30 min): 0.57 ± 0.05 %ID/g
- Ex vivo biodistribution ([2]; bone, 60 min): 0.82 ± 0.22 %ID/g
- Ex vivo biodistribution ([2]; brain, 5 min): 3.61 ± 0.74 %ID/g
- Ex vivo biodistribution ([2]; brain, 15 min): 0.91 ± 0.21 %ID/g
- Ex vivo biodistribution ([2]; brain, 30 min): 0.14 ± 0.01 %ID/g
- Ex vivo biodistribution ([2]; brain, 60 min): 0.04 ± 0.01 %ID/g
- Ex vivo biodistribution ([2]; heart, 5 min): 3.63 ± 0.10 %ID/g
- Ex vivo biodistribution ([2]; heart, 15 min): 1.49 ± 0.17 %ID/g
- Ex vivo biodistribution ([2]; heart, 30 min): 0.49 ± 0.07 %ID/g
- Ex vivo biodistribution ([2]; heart, 60 min): 0.25 ± 0.03 %ID/g
- Ex vivo biodistribution ([2]; kidneys, 5 min): 9.96 ± 1.01 %ID/g
- Ex vivo biodistribution ([2]; kidneys, 15 min): 6.41 ± 0.76 %ID/g
- Ex vivo biodistribution ([2]; kidneys, 30 min): 2.74 ± 0.12 %ID/g
- Ex vivo biodistribution ([2]; kidneys, 60 min): 1.32 ± 0.15 %ID/g
- Ex vivo biodistribution ([2]; liver, 5 min): 24.68 ± 10.36 %ID/g
- Ex vivo biodistribution ([2]; liver, 15 min): 15.53 ± 2.40 %ID/g
- Ex vivo biodistribution ([2]; liver, 30 min): 7.34 ± 0.78 %ID/g
- Ex vivo biodistribution ([2]; liver, 60 min): 3.97 ± 1.30 %ID/g
- Ex vivo biodistribution ([2]; lungs, 5 min): 8.88 ± 2.99 %ID/g
- Ex vivo biodistribution ([2]; lungs, 15 min): 5.46 ± 2.28 %ID/g
- Ex vivo biodistribution ([2]; lungs, 30 min): 2.86 ± 0.67 %ID/g
- Ex vivo biodistribution ([2]; lungs, 60 min): 1.65 ± 0.35 %ID/g
- Ex vivo biodistribution ([2]; muscle, 5 min): 2.34 ± 1.06 %ID/g
- Ex vivo biodistribution ([2]; muscle, 15 min): 2.04 ± 2.24 %ID/g
- Ex vivo biodistribution ([2]; muscle, 30 min): 0.38 ± 0.11 %ID/g
- Ex vivo biodistribution ([2]; muscle, 60 min): 0.39 ± 0.40 %ID/g
- Ex vivo biodistribution ([2]; pancreas, 5 min): 16.19 ± 1.99 %ID/g
- Ex vivo biodistribution ([2]; pancreas, 15 min): 5.75 ± 2.56 %ID/g
- Ex vivo biodistribution ([2]; pancreas, 30 min): 1.26 ± 0.25 %ID/g
- Ex vivo biodistribution ([2]; pancreas, 60 min): 0.76 ± 0.55 %ID/g
- Ex vivo biodistribution ([2]; small intestine, 5 min): 58.87 ± 18.10 %ID/g
- Ex vivo biodistribution ([2]; small intestine, 15 min): 58.62 ± 13.63 %ID/g
- Ex vivo biodistribution ([2]; small intestine, 30 min): 20.55 ± 17.97 %ID/g
- Ex vivo biodistribution ([2]; small intestine, 60 min): 26.44 ± 36.34 %ID/g
- Ex vivo biodistribution ([2]; spleen, 5 min): 4.38 ± 0.99 %ID/g
- Ex vivo biodistribution ([2]; spleen, 15 min): 2.12 ± 1.24 %ID/g
- Ex vivo biodistribution ([2]; spleen, 30 min): 0.52 ± 0.07 %ID/g
- Ex vivo biodistribution ([2]; spleen, 60 min): 0.39 ± 0.29 %ID/g
- initial radioactive signals in peripheral organs ([2]; spleen, heart, lungs, pancreas, stomach, small intestine, kidneys, liver): > 4 %ID/g
- Ex vivo biodistribution ([2]; stomach, 5 min): 5.72 ± 2.69 %ID/g
- Ex vivo biodistribution ([2]; stomach, 15 min): 5.69 ± 1.06 %ID/g
- Ex vivo biodistribution ([2]; stomach, 30 min): 7.88 ± 5.2 %ID/g
- Ex vivo biodistribution ([2]; stomach, 60 min): 2.41 ± 1.31 %ID/g
- parent fraction in plasma ([3]; 30 min post tracer administration): 38%
- parent fraction in plasma ([3]; 60 min post tracer administration): 23%
- radioactivity levels under blocking with GNE-0877 (LRRK2 [4]; LRRK2-deficient brain regions (cerebellum and midbrain)): no obvious blocking results
- radioactivity levels under blocking with GNE-0877 (LRRK2 [4]; LRRK2-rich brain regions (hippocampus, cerebral cortex, striatum, thalamus)): significantly reduced
SMILES: N#Cc1cccc(-c2c[nH]c3ncnc(N4CCOCC4)c23)c1[18F] [[^18F]4]
- increase of radioactivity accumulation based on AUC (LRRK2-G2019S): around 22%
